How the values were obtained:
[1] = test system: MOLP-8 human multiple myeloma cell line; test: Caspase-Glo 3/7 apoptosis induction assay in MOLP-8 cells; format: cell-based; conditions: Homo sapiens, MOLP-8, 2 h, caspase-3/7 activity, 2 hours at 37° C.; averaged over all runs on all batches; read-out: MOLP8 AC50
From the text: MCL-1 is a regulator of apoptosis and is highly over-expressed in tumor cells that escape cell death. The assay evaluates the cellular potency of small-molecule compounds targeting regulators of the apoptosis pathway, primarily MCL-1, Bfl-1, Bcl-2, and other proteins of the Bcl-2 family. Protein-protein inhibitors disrupting the interaction of anti-apoptotic regulators with BH3-domain proteins initiate apoptosis.
The Caspase-Glo® 3/7 Assay is a luminescent assay that measures caspase-3 and −7 activities in purified enzyme preparations or cultures of adherent or suspension cells. The assay provides a proluminescent caspase-3/7 substrate, which contains the tetrapeptide sequence DEVD. This substrate is cleaved to release aminoluciferin, a substrate of luciferase used in the production of light. Addition of the single Caspase-Glo® 3/7 Reagent in an “add-mix-measure” format results in cell lysis, followed by caspase cleavage of the substrate and generation of a “glow-type” luminescent signal.
This assay uses the MOLP-8 human multiple myeloma cell line, which is sensitive to MCL-1 inhibition.
Cell cultures were maintained between 0.2 and 2.0×10^6 cells/mL. The cells were harvested by collection in 50 mL conical tubes. The cells were then pelleted at 500 g for 5 mins before removing supernatant and resuspension in fresh pre-warmed culture medium. The cells were counted and diluted as needed.
The assay reagent was prepared by transferring the buffer solution to the substrate vial and mixing. The solution may be stored for up to 1 week at 4° C. with negligible loss of signal.
Compounds were delivered in assay-ready plates (Proxiplate) and stored at −20° C. Assays always include 1 reference compound plate containing reference compounds. The plates were spotted with 40 nL of compounds (0.5% DMSO final in cells; serial dilution; […] highest conc. 1/3 dilution, 10 doses, duplicates). The compounds were used at room temperature and 4 μL of pre-warmed media was added to all wells except column 2 and 23. The negative control was prepared by adding 1% DMSO in media. The positive control was prepared by adding the appropriate positive control compound in final concentration of […] in media. The plate was prepared by adding 4 μL negative control to column 23, 4 μL positive control to column 2 and 4 μL cell suspension to all wells in the plate. The plate with cells was then incubated at 37° C. for 2 hours. The assay signal reagent is the Caspase-Glo solution described above, and 8 μL was added to all wells. The plates were then sealed and measured after 30 minutes.
The activity of a test compound was calculated as percent change in apoptosis induction as follows:
% Effect (AC50)=100−(sample-LC)/(HC-LC)*100
% Control=(sample/HC)*100
% Control min=(sample-LC)/(HC-LC)*100

[2] = target: Myeloid Cell Leukemia 1(Mcl-1) (Homo sapiens, UniProt Q07820); test: Terbium labeled Mcl-1 HTRF binding assay with Cy5-labeled BIM BH3 peptide; conditions: displacement of Cy5 Bim BH3 peptide; Ki=IC50/(1+[L]/Kd), [L]=8 nM, Kd=10 nM; 60 minutes at room temperature; read-out: Tb-MCL1 Ki
Sequence of Myeloid Cell Leukemia 1(Mcl-1) (Q07820 whole entry): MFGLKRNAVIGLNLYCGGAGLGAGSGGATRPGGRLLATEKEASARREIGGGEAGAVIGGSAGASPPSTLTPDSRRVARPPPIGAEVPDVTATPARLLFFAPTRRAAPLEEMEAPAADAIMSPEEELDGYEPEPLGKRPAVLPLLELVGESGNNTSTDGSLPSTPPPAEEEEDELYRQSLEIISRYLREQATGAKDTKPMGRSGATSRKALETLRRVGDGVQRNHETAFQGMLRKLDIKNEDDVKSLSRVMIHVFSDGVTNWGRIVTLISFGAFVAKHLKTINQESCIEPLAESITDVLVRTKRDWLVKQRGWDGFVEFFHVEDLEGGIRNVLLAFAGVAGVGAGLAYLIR
Method: Terbium labeled Myeloid Cell Leukemia 1(Mcl-1) homogeneous time-resolved fluorescence (HTRF) binding assay utilizing the BIM BH3 peptide (H2N—(C/Cy5Mal) WIAQELRRIGDEFN-OH) as the binding partner for Mcl-1.
This assay evaluated inhibition of the BH3 domain: Mcl-1 interaction by measuring the displacement of Cy5-labeled BIM BH3 peptide (H2N—(C/Cy5Mal) WIAQELRRIGDEFN-OH) in the HTRF assay format.
The following assay and stock buffers were prepared for use in the assay: (a) Stock buffer: 10 mM Tris-HCl, pH=7.5+150 mM NaCl, filtered, sterilized, and stored at 4° C.; and (b) 1X assay buffer, where the following ingredients were added fresh to stock buffer: 2 mM dithiothreitol (DTT), 0.0025% Tween-20, 0.1 mg/mL bovine serum albumin (BSA). The 1X Tb-Mcl-1+Cy5 Bim peptide solution was prepared by diluting the protein stock solution using the 1X assay buffer (b) to 25 pM Tb-Mcl-1 and 8 nM Cy5 Bim peptide.
Using the Acoustic ECHO, 100 nL of 100x test compound(s) were dispensed into individual wells of a white 384-well Perkin Elmer Proxiplate, for a final compound concentration of 1× and final DMSO concentration of 1%. Inhibitor control and neutral control (NC, 100 nL of 100% DMSO) were stamped into columns 23 and 24 of assay plate, respectively. Into each well of the plate was then dispensed 10 μL of the 1X Tb-Mcl-1+Cy5 Bim peptide solution. The plate was centrifuged with a cover plate at 1000 rpm for 1 minute, then incubated for 60 minutes at room temperature with plates covered.
The TR-FRET signal was read on an BMG PHERAStar FSX MicroPlate Reader at room temperature using the HTRF optic module (HTRF: excitation: 337 nm, light source: laser, emission A: 665 nm, emission B: 620 nm, integration start: 60 μs, integration time: […]).
The BMG PHERAStar FSX MicroPlate Reader was used to measure fluorescence intensity at two emission wavelengths—665 nm and 620 nm—and report relative fluorescence units (RFU) for both emissions, as well as a ratio of the emissions (665 nm/620 nm)*10,000. The RFU values were normalized to percent inhibition as follows:
% inhibition=(((NC−IC)−(compound−IC))/(NC−IC))*100
where IC (inhibitor control, low signal)= mean signal of 1X Tb-MCl-1+Cy5 Bim peptide+inhibitor control or 100% inhibition of Mcl-1; NC (neutral control, high signal)= mean signal 1X Tb-MCl-1+Cy5 Bim peptide with DMSO only or 0% inhibition An 11-point dose response curve was generated to determine IC50 values (using GenData) based on the following equation:
Y=Bottom+(Top−Bottom)/(1+10∧((log IC50−X)*HillSlope))
where Y=% inhibition in the presence of X inhibitor concentration; Top=100% inhibition derived from the IC (mean signal of Mcl-1+inhibitor control); Bottom=0% inhibition derived from the NC (mean signal of Mcl-1+DMSO); Hillslope=Hill coefficient; and IC50=concentration of compound with 50% inhibition in relation to top/neutral control (NC).
In this assay [L]=8 nM and Kd=10 nM

SMILES	AC50 [1] [nM]	Ki [2] [nM]
COCCN(CCOC)C(=O)[C@H]1/C(F)=C/C[C@H](C)[C@@H](C)S(=O)(=O)NC(=O)c2ccc3c(c2)N(C[C@@H]2CCCN21)C[C@@]1(CCOc2cc(Cl)ccc21)CO3 [Compound 77]	144	0.027
C[C@@H]1[C@@H](C)C/C=C(\F)[C@H](C(=O)N2CCOC(C(F)(F)F)C2)N2CCC[C@H]2CN2C[C@@]3(CCCc4cc(Cl)ccc43)COc3ccc(cc32)C(=O)NS1(=O)=O (single isomer, unassigned) [Compound 20]	193	0.255
CCS(=O)(=O)CCN(C)C(=O)[C@H]1/C(F)=C/C[C@H](C)[C@@H](C)S(=O)(=O)NC(=O)c2ccc3c(c2)N(C[C@@H]2CCCN21)C[C@@]1(CCCc2cc(Cl)ccc21)CO3 [Compound 82]	557	0.025
C[C@@H]1[C@@H](C)C/C=C(\F)[C@H](C(=O)N(C)C2CCCOC2)N2CCC[C@H]2CN2C[C@@]3(CCCc4cc(Cl)ccc43)COc3ccc(cc32)C(=O)NS1(=O)=O (stereo partly shown) [Compound 58]	55.7	0.041
C[C@@H]1[C@@H](C)C/C=C(\F)[C@H](C(=O)N(C)Cc2nnnn2C)N2CCC[C@H]2CN2C[C@@]3(CCCc4cc(Cl)ccc43)COc3ccc(cc32)C(=O)NS1(=O)=O [Compound 66]	357	0.025
C[C@@H]1[C@@H](C)C/C=C(\F)[C@H](C(=O)N2CCN(C)[C@@H](C)C2)N2CCC[C@H]2CN2C[C@@]3(CCCc4cc(Cl)ccc43)COc3ccc(cc32)C(=O)NS1(=O)=O [Compound 24]	151	0.068
COCCCN(C)C(=O)[C@H]1/C(F)=C/C[C@H](C)[C@@H](C)S(=O)(=O)NC(=O)c2ccc3c(c2)N(C[C@@H]2CCCN21)C[C@@]1(CCCc2cc(Cl)ccc21)CO3 (single isomer, unassigned) [Compound 51]	78.3	0.04
COC1CN(C(=O)[C@H]2/C(F)=C/C[C@H](C)[C@@H](C)S(=O)(=O)NC(=O)c3ccc4c(c3)N(C[C@@H]3CCCN32)C[C@@]2(CCCc3cc(Cl)ccc32)CO4)C1 [Compound 25]	154	0.072
C[C@@H]1[C@@H](C)C/C=C(\F)[C@H](C(=O)N(C)CCN2CC(F)(F)C2)N2CCC[C@H]2CN2C[C@@]3(CCCc4cc(Cl)ccc43)COc3ccc(cc32)C(=O)NS1(=O)=O [Compound 87]	84.8	0.071
C[C@@H]1[C@@H](C)C/C=C(\F)[C@H](C(=O)N(C)C)N2CCC[C@H]2CN2C[C@@]3(CCCc4cc(Cl)ccc43)COc3ccc(cc32)C(=O)NS1(=O)=O [Compound 3]	99.2	0.129
COCCN1CCC(CN(C)C(=O)[C@H]2/C(F)=C/C[C@H](C)[C@@H](C)S(=O)(=O)NC(=O)c3ccc4c(c3)N(C[C@@H]3CCCN32)C[C@@]2(CCCc3cc(Cl)ccc32)CO4)CC1 [Compound 85]	759	0.025
C[C@@H]1[C@@H](C)C/C=C(\F)[C@H](C(=O)N(C)CCn2cccn2)N2CCC[C@H]2CN2C[C@@]3(CCCc4cc(Cl)ccc43)COc3ccc(cc32)C(=O)NS1(=O)=O [Compound 61]	166	0.074
COCCCN(CCOC)C(=O)[C@H]1/C(F)=C/C[C@H](C)[C@@H](C)S(=O)(=O)NC(=O)c2ccc3c(c2)N(C[C@@H]2CCCN21)C[C@@]1(CCCc2cc(Cl)ccc21)CO3 [Compound 70]	41.9	0.028
C[C@@H]1[C@@H](C)C/C=C(\F)[C@H](C(=O)N(C)CC2COCCO2)N2CCC[C@H]2CN2C[C@@]3(CCCc4cc(Cl)ccc43)COc3ccc(cc32)C(=O)NS1(=O)=O (single isomer, unassigned) [Compound 54]	76.4	0.042
COCCN(CCOC)CCN(C)C(=O)[C@H]1/C(F)=C/C[C@H](C)[C@@H](C)S(=O)(=O)NC(=O)c2ccc3c(c2)N(C[C@@H]2CCCN21)C[C@@]1(CCCc2cc(Cl)ccc21)CO3 [Compound 73]	91.4	0.021
C[C@@H]1[C@@H](C)C/C=C(\F)[C@H](C(=O)N(C)CC2CCCCO2)N2CCC[C@H]2CN2C[C@@]3(CCCc4cc(Cl)ccc43)COc3ccc(cc32)C(=O)NS1(=O)=O (single isomer, unassigned) [Compound 71]	94.2	0.066
C[C@@H]1[C@@H](C)C/C=C(\F)[C@H](C(=O)N(CCO)CCN2CCOCC2)N2CCC[C@H]2CN2C[C@@]3(CCCc4cc(Cl)ccc43)COc3ccc(cc32)C(=O)NS1(=O)=O [Compound 74]	436	0.02
C[C@@H]1[C@@H](C)C/C=C(\F)[C@H](C(=O)N(C)Cc2nnn(C)n2)N2CCC[C@H]2CN2C[C@@]3(CCCc4cc(Cl)ccc43)COc3ccc(cc32)C(=O)NS1(=O)=O [Compound 67]	120	0.037
COCCN1CCN(C(=O)[C@H]2/C(F)=C/C[C@H](C)[C@@H](C)S(=O)(=O)NC(=O)c3ccc4c(c3)N(C[C@@H]3CCCN32)C[C@@]2(CCCc3cc(Cl)ccc32)CO4)CC1 [Compound 38]	187	0.051
C[C@@H]1[C@@H](C)C/C=C(\F)[C@H](C(=O)N2CCOCC2)N2CC[C@H]2CN2C[C@@]3(CCCc4cc(Cl)ccc43)COc3ccc(cc32)C(=O)NS1(=O)=O [Compound 7]	346	0.223
CO[C@@H]1CCN(C(=O)[C@H]2/C(F)=C/C[C@H](C)[C@@H](C)S(=O)(=O)NC(=O)c3ccc4c(c3)N(C[C@@H]3CCCN32)C[C@@]2(CCCc3cc(Cl)ccc32)CO4)C1 [Compound 52]	90.5	0.036
C[C@@H]1[C@@H](C)C/C=C(\F)[C@H](C(=O)N2CCO[C@@H](C)C2)N2CCC[C@H]2CN2C[C@@]3(CCCc4cc(Cl)ccc43)COc3ccc(cc32)C(=O)NS1(=O)=O [Compound 6]	84.3	–

From US20230219906A1, “MACROCYCLIC-2-AMINO-3-FLUORO-BUT-3-ENAMIDES AS INHIBITORS OF MCL-1” (Janssen Pharmaceutica NV, priority 2020, published 2023)
